Data: US20230407373A1 (priority 2020, published 2023)
Where two headings read alike, the source gives them in different places.

Columns and labels:
gRNA of HCoV-OC43 = assay type: binding; settings: for target (spectral count, OC43 Probe I RNP capture) / background (spectral count, no-probe control): type n_48_v: 48 hours post-infection; for target (spectral count, OC43 Probe I RNP capture): infected cells, unweighted spectral count; for background (spectral count, no-probe control): no-probe control on infected cells; for target (spectral count) / background (spectral count): type g_36_m, 36 hpi, Probe I; for target (spectral count): HCoV-OC43-infected HCT-8 cells; for background (spectral count): uninfected-probe control
HCoV-OC43 gRNA and sgRNA = assay type: binding; settings: for target (unweighted spectral count, OC43 Probe II capture) / target (unweighted spectral count): tested against no-probe control; for target (unweighted spectral count, OC43 Probe II capture): FDR<10%; for target (unweighted spectral count): OC43 Probe II, infected cells; for target (unweighted spectral count, OC43 Probe II) / background (unweighted spectral count, no-probe control): type n_48_v, 48 hpi; for target (unweighted spectral count, OC43 Probe II): OC43 Probe II capture on infected cells; for background (unweighted spectral count, no-probe control): no-probe control on infected cells
SARS-CoV-2 gRNA = assay type: binding; settings: […]; LC-MS/MS; Probe I sample (first 199 lines of Table 2)
[1] = tested on: SARS-CoV-2 gRNA and sgRNAs; assay type: binding; settings: for target (unweighted spectral count in RNP capture): Probe II capture, LC-MS/MS LFQ; for background (unweighted spectral count in control): no-probe control pull-down, used as background for Probe II
SARS-CoV-2 = assay type: cell-based; settings: Calu-3 cells, 50 nM siRNA, RT-qPCR, relative to siNC

Row | Substance | target (spectral count, OC43 Probe I RNP capture) (gRNA of HCoV-OC43) | background (spectral count, no-probe control) (gRNA of HCoV-OC43) | target (unweighted spectral count, OC43 Probe II capture) (HCoV-OC43 gRNA and sgRNA; 36 hpi, type n_36_v) | target (unweighted spectral count) (HCoV-OC43 gRNA and sgRNA; 12 hpi (type n_12_v)) | target (unweighted spectral count) (HCoV-OC43 gRNA and sgRNA; 24 hpi (type n_24_v)) | target (unweighted spectral count, OC43 Probe II) (HCoV-OC43 gRNA and sgRNA) | background (unweighted spectral count, no-probe control) (HCoV-OC43 gRNA and sgRNA) | target (unweighted spectral count of the protein in the RNP capture) (SARS-CoV-2 gRNA) | target (unweighted spectral count in RNP capture) [1] | background (unweighted spectral count in control) [1] | change in viral RNA levels (gRNA, N sgRNA) after siRNA depletion (SARS-CoV-2) | target (spectral count) (gRNA of HCoV-OC43) | background (spectral count) (gRNA of HCoV-OC43) | target (unweighted spectral count, OC43 Probe II capture) (HCoV-OC43 gRNA and sgRNA; 24 hpi, type n_24_v)
1 | TARDBP | 28 | 3 | 19 | 10 | 20 | 22 | 3 | 28 | 30 | 1 | – | – | – | –
2 | TRIM25: host protein, UniProt Q14258 | – | – | – | – | – | 13 | 3 | – | 20 | 1 | increased viral RNAs | 14 | 1 | 5
3 | XRCC6 | 12 | 1 | 11 | – | 7 | 17 | 1 | 10 | 9 | 1 | – | – | – | –
4 | YBX3: host protein, UniProt P16989 | – | – | – | 7 | 10 | – | – | 41 | 73 | 1 | – | 13 | 2 | –
